Here are results for 22 molecules from ChEMBL document CHEMBL1124295, “Synthesis and oral antiallergic activity of carboxylic acids derived from imidazo[2,1-c][1,4]benzoxazines, imidazo[1,2-a]quinolines, imidazo[1,2-a]quinoxalines, imidazo[1,2-a]quinoxalinones, pyrrolo[1,2-a]quinoxalinones, pyrrolo[2,3-a]quinoxalinones, and imidazo[2,1-b]benzothiazoles” (1988).

Assay [1] concerns Rattus norvegicus. Description: Inhibition of the IgE-mediated passive cutaneous anaphylaxis (PCA) reaction in rat after intravenous administration; Range 0.08-0.37. The assay is classed as functional.
The subject of assay [2] is Rattus norvegicus. Nature of the assay: Inhibition of the IgE-mediated passive cutaneous anaphylaxis (PCA) reaction in rat after intravenous administration; Range 1.73-30.03. The assay is classed as functional.
For assay [3], the system named is Rattus norvegicus. Description: Inhibition of the IgE-mediated passive cutaneous anaphylaxis (PCA) reaction in rat after oral administration; Range 2.71-7.46. It counts as functional.
For assay [4], the system named is Rattus norvegicus. Description: Inhibition of the IgE-mediated passive cutaneous anaphylaxis (PCA) reaction in rat after intravenous administration; Range 0.34-0.45. The assay is classed as functional.
Assay [5] relates to Rattus norvegicus. Nature of the assay: Inhibition of the IgE-mediated passive cutaneous anaphylaxis (PCA) reaction in rat after oral administration; Range 5.21-7.35. It counts as functional.
Assay [6] has as its system Rattus norvegicus. Description: Inhibition of the IgE-mediated passive cutaneous anaphylaxis (PCA) reaction in rat after intravenous administration; Range 0.072-0.41. The assay is classed as functional.
Assay [7] concerns Rattus norvegicus. Nature of the assay: Inhibition of the IgE-mediated passive cutaneous anaphylaxis (PCA) reaction in rat after intravenous administration; Range 2.22-3.63. It counts as functional.
The test system of assay [8] is Rattus norvegicus. Nature of the assay: Inhibition of the IgE-mediated passive cutaneous anaphylaxis (PCA) reaction in rat after oral administration; Range 2.47-3.45. The assay is classed as functional.
Assay [9] relates to Rattus norvegicus. Nature of the assay: Inhibition of the IgE-mediated passive cutaneous anaphylaxis (PCA) reaction in rat after oral administration; Range 2.51-4.1. The assay is classed as functional.
In assay [10] the test system is Rattus norvegicus. Nature of the assay: Inhibition of the IgE-mediated passive cutaneous anaphylaxis (PCA) reaction in rat after intravenous administration; Range 0.007-0.049. It counts as functional.
The test system of assay [11] is Rattus norvegicus. Description: Inhibition of the IgE-mediated passive cutaneous anaphylaxis (PCA) reaction in rat after oral administration; Range 0.07-22.7. It counts as functional.
In assay [12] the test system is Rattus norvegicus. Nature of the assay: Inhibition of the IgE-mediated passive cutaneous anaphylaxis (PCA) reaction in rat after oral administration; Range 0.20-0.83. The assay is classed as functional.
Assay [13] deals with Rattus norvegicus. Nature of the assay: Inhibition of the IgE-mediated passive cutaneous anaphylaxis (PCA) reaction in rat after intravenous administration; Range 0.20-0.5. It counts as functional.
Assay [14] has as its system Rattus norvegicus. Nature of the assay: Inhibition of the IgE-mediated passive cutaneous anaphylaxis (PCA) reaction in rat after intravenous administration; Range 1.31-4.63. It counts as functional.
Assay [15] has as its system Rattus norvegicus. Nature of the assay: Inhibition of the IgE-mediated passive cutaneous anaphylaxis (PCA) reaction in rat after intravenous administration; Range 0.025-0.11. The assay is classed as functional.
Assay [16] relates to Rattus norvegicus. Description: Inhibition of the IgE-mediated passive cutaneous anaphylaxis (PCA) reaction in rat after oral administration; Range 0.51-7.81. The assay is classed as functional.
The test system of assay [17] is Rattus norvegicus. Nature of the assay: Inhibition of the IgE-mediated passive cutaneous anaphylaxis (PCA) reaction in rat after intravenous administration; Range 1.04-1.42. It counts as functional.
In assay [18] the test system is Rattus norvegicus. Description: Inhibition of the IgE-mediated passive cutaneous anaphylaxis (PCA) reaction in rat after oral administration; NA means Inactive. It counts as functional, organism-based.
Assay [19] deals with Rattus norvegicus. Description: Inhibition of the IgE-mediated passive cutaneous anaphylaxis (PCA) reaction in rat after intravenous administration; Range 2.20-3.00. The assay is classed as functional.
Assay [20] deals with Rattus norvegicus. Description: Inhibition of the IgE-mediated passive cutaneous anaphylaxis (PCA) reaction in rat after intravenous administration; Range 0.31-0.45. The assay is classed as functional.
Assay [21] deals with Rattus norvegicus. Nature of the assay: Inhibition of the IgE-mediated passive cutaneous anaphylaxis (PCA) reaction in rat after oral administration; Range 2.89-3.99. It counts as functional.
In assay [22] the test system is Rattus norvegicus. Nature of the assay: Inhibition of the IgE-mediated passive cutaneous anaphylaxis (PCA) reaction in rat after oral administration; NA means inactive at 1 and 10 mg/Kg. The assay is classed as functional, organism-based.
In assay [23] the test system is Rattus norvegicus. Description: Inhibition of the IgE-mediated passive cutaneous anaphylaxis (PCA) reaction in rat after intravenous administration; Range 0.12-1.07. It counts as functional.
Assay [24] concerns Rattus norvegicus. Nature of the assay: Inhibition of the IgE-mediated passive cutaneous anaphylaxis (PCA) reaction in rat after intravenous administration; Range 0.1-0.44. The assay is classed as functional.
For assay [25], the system named is Rattus norvegicus. Description: Inhibition of the IgE-mediated passive cutaneous anaphylaxis (PCA) reaction in rat after oral administration; Range 0.07-0.03. The assay is classed as functional.
In assay [26] the test system is Rattus norvegicus. Nature of the assay: Inhibition of the IgE-mediated passive cutaneous anaphylaxis (PCA) reaction in rat after intravenous administration; Range 0.004-0.006. It counts as functional.
For assay [27], the system named is Rattus norvegicus. Nature of the assay: Inhibition of the IgE-mediated passive cutaneous anaphylaxis (PCA) reaction in rat after intravenous administration; Range 1.07-3.93. It counts as functional.
Assay [28] has as its system Rattus norvegicus. Description: Inhibition of the IgE-mediated passive cutaneous anaphylaxis (PCA) reaction in rat after oral administration; Range 0.37-0.65. The assay is classed as functional.
Assay [29] has as its system Rattus norvegicus. Description: Inhibition of the IgE-mediated passive cutaneous anaphylaxis (PCA) reaction in rat after intravenous administration; Range 0.014-0.029. It counts as functional.
For assay [30], the system named is Rattus norvegicus. Description: Inhibition of the IgE-mediated passive cutaneous anaphylaxis (PCA) reaction in rat after intravenous administration; Range 0.104. It counts as functional.
The subject of assay [31] is Rattus norvegicus. Description: Inhibition of the IgE-mediated passive cutaneous anaphylaxis (PCA) reaction in rat after oral administration; Inactive at 20 mg/kg. It counts as functional, organism-based. Also on record: dose 20 mg/kg.
Assay [32] deals with Rattus norvegicus. Description: Inhibition of the IgE-mediated passive cutaneous anaphylaxis (PCA) reaction in rat after oral administration at concentration of 10 mg/Kg of compound. It counts as functional.

The structures appear in SMILES notation. Active and inactive are the calls of the source. The rule behind the calls is not given here.

As usually defined, the ED50 is the dose that gives a 50% effect, or the effect in half of the subjects. Consider `CCc1ccc2ccc3nc(C(=O)O)cn3c2c1`, for which it took a dose of 0.16 mg/kg to reach the 50% effect level with Rattus norvegicus [1] (ED50). For `O=Cc1cn2c(n1)COc1ccccc1-2`, the ED50 in the assay with Rattus norvegicus [2] was found to be 4.79 mg/kg; with Rattus norvegicus [3], 4.27 mg/kg.

As to `O=C(O)c1cn2c(n1)CCc1ccccc1-2`, the ED50 was found to be 0.39 mg/kg with Rattus norvegicus [4] and 6.14 mg/kg with Rattus norvegicus [5].

Molecule `COc1cccc2sc3nc(C(=O)O)cn3c12` had an ED50 in the assay on Rattus norvegicus [6] of 0.16 mg/kg.

`O=C(O)c1cn2c(n1)COc1ccccc1-2`: the ED50 in the assay on Rattus norvegicus [7] is 2.89 mg/kg; with Rattus norvegicus [8] it was 3.2 mg/kg. Molecule `O=C(OCCCl)c1cn2c(ccc3ccccc32)n1` returned an ED50 in the assay with Rattus norvegicus [9] of 3.5 mg/kg. Turning to `Clc1ccc2c(Cl)cc3nc(-c4nn[nH]n4)cn3c2c1`, the ED50 with Rattus norvegicus [10] amounted to 0.016 mg/kg; with Rattus norvegicus [11], 0.5 mg/kg. In the case of `O=C(Nc1nn[nH]n1)c1cn2c(ccc3ccccc32)n1`, the 50% effective dose (ED50) with Rattus norvegicus [12] worked out at 0.54 mg/kg; in the assay on Rattus norvegicus [13], 0.31 mg/kg.

In turn, `O=C(O)c1cn2c(n1)COc1ccc([N+](=O)[O-])cc1-2` displayed an ED50 with Rattus norvegicus [14] of 2.22 mg/kg. In the case of `CS(=O)(=O)c1cc2nc(C(=O)O)cn2c2ccccc12`, the ED50 in the assay with Rattus norvegicus [15] worked out at 0.047 mg/kg; in the assay with Rattus norvegicus [16], 1.64 mg/kg. Consider `O=C([O-])c1cc(=O)c2c(OCC(O)COc3cccc4oc(C(=O)[O-])cc(=O)c34)cccc2o1.[Na+].[Na+]` [CROMOLYN SODIUM], for which the 50% effect level with Rattus norvegicus [17] (ED50) was put at a dose of 1.21 mg/kg. In addition, in the assay on Rattus norvegicus [18], the ED50 entry was “inactive”. Take `CS1(=O)=Nc2nc(C(=O)O)cn2-c2ccccc21` (configuration not stated): it took a dose of 2.59 mg/kg to reach the 50% effect level in the assay on Rattus norvegicus [19] (ED50). In turn, `Cc1nc(C(=O)O)c2c(O)nc3ccccc3n12` showed a 50% effective dose (ED50) in the assay with Rattus norvegicus [20] of 0.37 mg/kg.

Molecule `COC(=O)c1cn2c(n1)COc1ccc(NC(C)=O)cc1-2` yielded an ED50 in the assay with Rattus norvegicus [21] of 3.48 mg/kg.

As for `O=C(Nc1nn[nH]n1)c1cn2c(n1)COc1ccccc1-2`, the ED50 result with Rattus norvegicus [22] was “inactive”. It took a dose of 0.33 mg/kg to reach the 50% effect level with Rattus norvegicus [23] (ED50).

With `Cn1c(=O)c2cc(C(=O)O)nn2c2ccccc21`, the ED50 with Rattus norvegicus [24] was 0.19 mg/kg. Take `CCCCCCc1cc([S+](C)(=N)[O-])cc2c(=O)c3cc(C(=O)O)ccc3oc12.NC(CO)(CO)CO` (configuration not stated): the values for the ED50 in the assay on Rattus norvegicus [25] and with Rattus norvegicus [26] were 0.19 mg/kg and 0.005 mg/kg, respectively. `O=C(O)c1cn2c(n1)N=S(=O)(c1ccccc1)c1ccccc1-2` (configuration not stated) gave a 50% effective dose (ED50) in the assay with Rattus norvegicus [27] of 1.92 mg/kg. With `CCOC(=O)C(=O)Nc1ccc2c(c1)-n1cc(C(=O)OC)nc1CO2`, the 50% effect level in the assay on Rattus norvegicus [28] (ED50) was put at a dose of 0.5 mg/kg.

For `CCCn1c(=O)c2cc(C(=O)O)nn2c2ccccc21`, the ED50 in the assay with Rattus norvegicus [29] stood at 0.023 mg/kg. In turn, `O=C(O)c1ncn2c1c(O)nc1ccccc12` gave an ED50 with Rattus norvegicus [30] of 0.104 mg/kg. Besides, the ED50 result in the assay on Rattus norvegicus [31] is “inactive”. A word on the Inhibition: it is how much of the control response was suppressed. In the case of `O/N=C\c1cn2c(n1)COc1ccccc1-2`, the Inhibition with Rattus norvegicus [32] came out at 42%.
